Source: ChEMBL document CHEMBL1208730, “Heteroaryl-linked 5-(1H-benzimidazol-1-yl)-2-thiophenecarboxamides: potent inhibitors of polo-like kinase 1 (PLK1) with improved drug-like properties” (Bioorg Med Chem Lett, 2010)
Values after ≈ are worked out from the molar mass of the structure shown.

Columns and labels:
[1] = Solubility of the compound in 20% SBE beta-cyclodextrin at pH 6; format: physicochemical
[2] = Clearance in iv dosed mouse; format: ADME, organism-based; details: in vivo

Compound C[C@@H](Oc1cc(-n2cnc3cc(-c4ccnc(N)c4)ccc32)sc1C(N)=O)c1ccccc1C(F)(F)F has a solubility [1] of 1000 µg/mL (≈ 1910 µM) and a clearance [2] of 38 mL/min/kg.

Work on C[C@@H](Oc1cc(-n2cnc3cc(-c4ccnc(N)n4)ccc32)sc1C(N)=O)c1ccccc1C(F)(F)F yielded a solubility [1] of 200 µg/mL (≈ 381 µM) and a clearance [2] of 70 mL/min/kg.

Work on C[C@@H](Oc1cc(-n2cnc3cc(-c4ccnc(N5CCNCC5)c4)ccc32)sc1C(N)=O)c1ccccc1Cl yielded a clearance [2] of 58 mL/min/kg.

C[C@@H](Oc1cc(-n2cnc3cc(-c4ccnc(N5CCN(C)CC5)c4)ccc32)sc1C(N)=O)c1ccccc1Cl gave a solubility [1] of 500 µg/mL (≈ 872 µM) and a clearance [2] of 52 mL/min/kg.

In the case of C[C@@H](Oc1cc(-n2cnc3cc(-c4ccnc(N5CCN(C)CC5)c4)ccc32)sc1C(N)=O)c1ccccc1C(F)(F)F, the solubility [1] was 870 µg/mL (≈ 1430 µM) and the clearance [2] was 32 mL/min/kg.

With C[C@@H](Oc1cc(-n2cnc3cc(-c4ccnc(NCCN(C)C)c4)ccc32)sc1C(N)=O)c1ccccc1C(F)(F)F the solubility [1] was 3230 µg/mL (≈ 5430 µM) and the clearance [2] was 62 mL/min/kg.

With C[C@@H](Oc1cc(-n2cnc3cc(-c4ccnc(NCCS(C)(=O)=O)c4)ccc32)sc1C(N)=O)c1ccccc1Cl the solubility [1] was 30 µg/mL (≈ 50.3 µM).

For C[C@@H](Oc1cc(-n2cnc3cc(-c4ccnc(NCCO)c4)ccc32)sc1C(N)=O)c1ccccc1Cl, the solubility [1] was 300 µg/mL (≈ 562 µM) and the clearance [2] was 109 mL/min/kg.

In the case of C[C@@H](Oc1cc(-n2cnc3cc(-c4ccnc(NC5CCN(C)CC5)c4)ccc32)sc1C(N)=O)c1ccccc1Cl, the solubility [1] was 1050 µg/mL (≈ 1790 µM) and the clearance [2] was 48 mL/min/kg.

C[C@@H](Oc1cc(-n2cnc3cc(-c4ccc(NC5CCN(C)CC5)nc4)ccc32)sc1C(N)=O)c1ccccc1Cl gave a solubility [1] of 2930 µg/mL (≈ 4990 µM) and a clearance [2] of 19 mL/min/kg.

Compound C[C@@H](Oc1cc(-n2cnc3cc(-c4cnn(CCN5CCOCC5)c4)ccc32)sc1C(N)=O)c1ccccc1Cl has a solubility [1] of 530 µg/mL (≈ 918 µM) and a clearance [2] of 82 mL/min/kg.

For C[C@@H](Oc1cc(-n2cnc3cc(-c4cnn(CCN5CCN(C)CC5)c4)ccc32)sc1C(N)=O)c1ccccc1Cl, the solubility [1] was 4550 µg/mL (≈ 7710 µM) and the clearance [2] was 54 mL/min/kg.

C[C@@H](Oc1cc(-n2cnc3cc(-c4cnn(CCCN(C)C)c4)ccc32)sc1C(N)=O)c1ccccc1Cl gave a solubility [1] of 5830 µg/mL (≈ 10600 µM) and a clearance [2] of 44 mL/min/kg.

CCN1CCN(CCCn2cc(-c3ccc4c(c3)ncn4-c3cc(O[C@H](C)c4ccccc4Cl)c(C(N)=O)s3)cn2)CC1 showed a solubility [1] of 3120 µg/mL (≈ 5050 µM) and a clearance [2] of 44 mL/min/kg.

For C[C@@H](Oc1cc(-n2cnc3cc(-c4ccncc4)ccc32)sc1C(N)=O)c1ccccc1Cl, the solubility [1] was 3 µg/mL (≈ 6.32 µM) and the clearance [2] was 70 mL/min/kg.

For C[C@@H](Oc1cc(-n2cnc3cc(-c4cnn(C)c4)ccc32)sc1C(N)=O)c1ccccc1Cl, the solubility [1] was 100 µg/mL (≈ 209 µM) and the clearance [2] was 15 mL/min/kg.
